According to patent US9295732B2, “Conjugated TLR7 and/or TLR8 and TLR2 polycationic agonists” (CAYLA, priority 2013, dated 2016):
Several values for one entry are separate records, joined by “and”; a condition that tells them apart may be missing. Equal entries are not always repeated.

Key:
[1] = Nanoparticle (lipoplex) size by dynamic light scattering; conditions: 25° C., triplicate; for Mean Diameter: complexes with pDNA 3:24 (w:w), dynamic light scattering; for PDI: polydispersity index of complexes with pDNA 3:24 (w:w);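 on all read-outs here: lipoplexes of TLR7-TLR2 polyamine conjugates with plasmid DNA, formed over 30 min at room temperature in serum-free medium or 5% glucose, diameter in nm, PDI dimensionless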
[2] = target: T1, human TLR7 (Homo sapiens, UniProt Q9NYK1); test: HEK-Blue hTLR7 NF-κB/AP-1 SEAP reporter assay; assay type: cell-based; conditions: HEK-Blue hTLR7 cells, 10 μg/mL to 10 pg/ml, 24 hours, OD at 655 nm, FIG. 1
T1 construct: host or cells: HEK293 (HEK-Blue™ hTLR7)
T1 sequence (Q9NYK1 27-1049): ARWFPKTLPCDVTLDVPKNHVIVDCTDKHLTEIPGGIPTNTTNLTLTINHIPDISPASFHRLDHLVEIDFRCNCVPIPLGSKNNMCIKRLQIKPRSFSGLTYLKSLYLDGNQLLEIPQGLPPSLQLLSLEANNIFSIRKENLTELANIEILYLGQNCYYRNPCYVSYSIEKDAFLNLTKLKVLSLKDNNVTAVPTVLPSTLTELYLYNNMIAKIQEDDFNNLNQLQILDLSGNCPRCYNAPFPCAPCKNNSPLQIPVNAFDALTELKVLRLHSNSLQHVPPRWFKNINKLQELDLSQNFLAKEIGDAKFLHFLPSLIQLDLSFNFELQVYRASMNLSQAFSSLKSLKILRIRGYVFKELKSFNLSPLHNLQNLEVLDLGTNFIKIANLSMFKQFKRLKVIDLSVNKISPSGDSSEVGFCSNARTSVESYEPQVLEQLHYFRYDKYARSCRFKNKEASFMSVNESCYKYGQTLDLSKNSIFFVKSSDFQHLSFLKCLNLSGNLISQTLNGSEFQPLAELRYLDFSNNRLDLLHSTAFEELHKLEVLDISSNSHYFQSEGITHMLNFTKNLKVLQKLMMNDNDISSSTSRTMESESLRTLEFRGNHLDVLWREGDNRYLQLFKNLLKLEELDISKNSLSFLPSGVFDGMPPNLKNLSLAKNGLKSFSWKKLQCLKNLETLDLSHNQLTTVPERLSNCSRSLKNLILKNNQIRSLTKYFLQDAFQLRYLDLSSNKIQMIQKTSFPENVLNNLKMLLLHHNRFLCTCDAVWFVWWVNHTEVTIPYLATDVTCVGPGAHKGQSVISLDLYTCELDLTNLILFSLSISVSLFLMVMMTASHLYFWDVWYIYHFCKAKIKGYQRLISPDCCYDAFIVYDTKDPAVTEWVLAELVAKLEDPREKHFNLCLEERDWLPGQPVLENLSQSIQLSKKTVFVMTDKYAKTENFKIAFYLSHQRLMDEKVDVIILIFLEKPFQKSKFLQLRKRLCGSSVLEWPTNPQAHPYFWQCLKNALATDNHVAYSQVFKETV
Method: (§1) Cell-based assays were carried out using TLR7 and TLR2 reporter cell lines (InvivoGen). The reporter cell lines are engineered HEK293 cells, a human embryonic kidney cell line (ATCC, CRL-1573) that stably express either murine TLR7 (HEK-Blue™ mTLR7) or human TLR7 (HEK-Blue™ hTLR7) or human TLR2 (HEK-Blue™ hTLR2) with an NF-κB-inducible secreted embryonic alkaline phosphatase (SEAP) as the reporter gene. The SEAP reporter gene is under the control of the NF-κB and AP-1-inducible promoter, which, upon treatment with a corresponding TLR ligand and activation of NF-κB and AP-1, induces the production of SEAP. Detection of SEAP is measured following culturing cells in HEK-Blue™ Detection media (InvivoGen). HEK-Blue™ Detection contains a SEAP substrate that when hydrolysed by SEAP produces a colorimetric change allowing for detection of SEAP as the protein is secreted. […] These assays were carried out using RAW-Blue™ Cells (InvivoGen), derived from RAW 264.7 mouse leukemic monocyte macrophage cell line (ATCC, CRL 2278) stably overexpressing a NF-B/AP-1 inducible SEAP reporter constructs.
(§2) To perform the assay, cells were seeded on 96 well microliter plates at 50,000 or 100,000 cells per well for HEK-Blue™ Cells and RAW-Blue™ Cells respectively, and cultured at 37° C. in the presence of the conjugated compounds The TLR7-TLR2 polyamine molecules were prepared as follows: First, stock solutions of the conjugated compounds of the invention were prepared in ethanol or water to a concentration of 10 mg/ml.
(§3) The working dilutions of the conjugated TLR7-TLR2 polyamine agonists made up in water or PBS were directly added to the reporter cell lines at a final concentration ranging from 10 μg/mL to 10 pg/ml and incubated at 37° C. for 24 hours. After 24 hours of incubation, the effect on reporter gene activity was determined by reading the OD at 655 nm using iMark™ Microplate Reader (BIO-RAD).

[3] = target: T2, murine TLR7 (Mus musculus, UniProt P58681); test: HEK-Blue mTLR7 NF-κB/AP-1 SEAP reporter assay; assay type: cell-based; conditions: HEK-Blue mTLR7 cells, 10 μg/mL to 10 pg/ml, 24 hours, OD at 655 nm, FIG. 2
T2 construct: host or cells: HEK293 (HEK-Blue™ mTLR7)
T2 sequence (P58681 27-1050): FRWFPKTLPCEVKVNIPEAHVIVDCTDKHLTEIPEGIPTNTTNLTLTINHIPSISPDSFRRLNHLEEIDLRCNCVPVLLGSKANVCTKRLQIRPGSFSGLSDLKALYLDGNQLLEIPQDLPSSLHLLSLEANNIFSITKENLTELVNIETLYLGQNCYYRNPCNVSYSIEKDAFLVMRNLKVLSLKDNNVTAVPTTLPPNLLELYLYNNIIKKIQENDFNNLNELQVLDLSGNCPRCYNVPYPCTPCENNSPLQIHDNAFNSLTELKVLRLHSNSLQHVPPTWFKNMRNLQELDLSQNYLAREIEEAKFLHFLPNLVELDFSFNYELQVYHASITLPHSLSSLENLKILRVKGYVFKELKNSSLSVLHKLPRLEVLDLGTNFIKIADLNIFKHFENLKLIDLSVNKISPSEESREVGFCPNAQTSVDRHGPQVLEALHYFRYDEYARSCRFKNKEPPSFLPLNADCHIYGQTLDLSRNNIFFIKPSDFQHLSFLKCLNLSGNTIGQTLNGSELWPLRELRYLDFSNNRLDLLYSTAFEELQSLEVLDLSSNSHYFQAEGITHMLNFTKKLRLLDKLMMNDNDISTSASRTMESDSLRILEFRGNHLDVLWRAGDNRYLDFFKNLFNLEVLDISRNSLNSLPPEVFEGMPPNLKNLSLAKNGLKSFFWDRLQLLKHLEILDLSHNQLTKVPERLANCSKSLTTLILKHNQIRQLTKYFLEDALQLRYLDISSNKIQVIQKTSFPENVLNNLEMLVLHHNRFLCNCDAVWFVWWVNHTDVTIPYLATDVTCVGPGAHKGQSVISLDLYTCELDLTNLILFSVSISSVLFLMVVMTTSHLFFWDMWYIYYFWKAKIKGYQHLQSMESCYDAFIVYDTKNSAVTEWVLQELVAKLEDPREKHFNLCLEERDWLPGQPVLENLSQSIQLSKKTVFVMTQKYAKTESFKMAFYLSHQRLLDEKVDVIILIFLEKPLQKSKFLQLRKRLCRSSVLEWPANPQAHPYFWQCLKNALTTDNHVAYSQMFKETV
Method: as §1, §2, §3

[4] = target: T3, human TLR2 (Homo sapiens, UniProt O60603); test: HEK-Blue hTLR2 NF-κB/AP-1 SEAP reporter assay; assay type: cell-based; conditions: HEK-Blue hTLR2 cells, 10 μg/mL to 10 pg/ml, 24 hours, OD at 655 nm, FIG. 3
T3 construct: host or cells: HEK293 (HEK-Blue™ hTLR2)
T3 sequence (O60603 21-784): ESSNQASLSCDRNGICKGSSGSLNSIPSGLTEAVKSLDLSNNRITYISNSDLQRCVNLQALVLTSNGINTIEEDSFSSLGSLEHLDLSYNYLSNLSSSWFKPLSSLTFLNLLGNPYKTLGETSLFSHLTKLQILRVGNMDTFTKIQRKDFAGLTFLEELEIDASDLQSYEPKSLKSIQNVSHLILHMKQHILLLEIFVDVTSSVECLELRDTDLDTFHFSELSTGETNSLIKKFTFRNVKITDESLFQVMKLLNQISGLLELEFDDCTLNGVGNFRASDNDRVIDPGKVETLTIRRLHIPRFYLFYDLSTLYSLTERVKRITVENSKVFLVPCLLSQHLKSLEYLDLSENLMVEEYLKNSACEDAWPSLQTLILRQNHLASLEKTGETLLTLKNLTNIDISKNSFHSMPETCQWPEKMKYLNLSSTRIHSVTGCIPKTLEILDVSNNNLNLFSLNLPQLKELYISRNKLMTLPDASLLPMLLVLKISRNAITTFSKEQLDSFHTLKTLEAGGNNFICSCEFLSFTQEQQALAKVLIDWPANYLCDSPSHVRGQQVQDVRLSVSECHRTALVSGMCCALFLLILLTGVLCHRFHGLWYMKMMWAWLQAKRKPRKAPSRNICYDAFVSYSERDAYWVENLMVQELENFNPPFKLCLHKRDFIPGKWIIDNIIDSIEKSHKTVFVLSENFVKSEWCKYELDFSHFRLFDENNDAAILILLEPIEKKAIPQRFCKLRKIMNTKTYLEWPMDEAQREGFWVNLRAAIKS
Method: as §1, §2, §3

[5] = test system: endogenous TLR2 and TLR7 in RAW-Blue™ Cells; test: RAW-Blue Cells NF-κB/AP-1 SEAP reporter assay; assay type: cell-based, mouse; conditions: 24 hours, OD at 655 nm, FIG. 4
Method: as §1, §2, §3

[6] = test system: plasmid DNA (pDNA); test: Gel shift (mobility shift) assay of pDNA complexation; assay type: binding; conditions: pDNA:molecule ratio 3:24 (w:w), 0.8% agarose gel, compared to pDNA alone
Method: Then, 10 μl of pDNA:TLR7-TLR2 polyamine molecule complexes and 2 μl of charge buffer were mixed and loaded into wells of a 0.8% agarose gel. Samples were migrated through the gel in TAE buffer under 135 voltage for 21 mins and the migration of the pDNA was visualized following ethidium bromide staining under UV light. The ability of TLR7-TLR2 polyamine molecules to complex/associate with the pDNA was identified by partial or complete retardation of the pDNA migration toward the anode in the gel compared to pDNA alone. […] Ethidium bromide intercalation of pDNA in complex with molecules allowed visualization of complexed pDNA as a smear in the wells of the gel.

Mean Diameter [1]	PDI [1]	Structure (SMILES)	ability to activate hTLR7 [2]	ability to activate mTLR7 [3]	ability to activate hTLR2 [4]	ability to activate endogenous TLR2 and TLR7 in RAW-Blue Cells [5]	ability to complex pDNA (retardation of pDNA migration in agarose gel) [6]
147.0 nm and 148.5 nm and 156.7 nm	0.185 and 0.193 and 0.210	CCCCCCCCCCCCCCCC(=O)OCC(CSC[C@H](N)C(=O)NCCCNCCCCNCCCN)OC(=O)CCCCCCCCCCCCCCC (some centres unmarked) [CL419]	–	–	–	–	–
145.9 nm and 155.8 nm and 153.5 nm	0.193 and 0.176 and 0.158	CCCCCCCCCCCCCCCC(=O)OCC(CSC[C@H](N)C(=O)N[C@@H](CCCCNC(=O)CNC(=O)c1ccc(Cn2c(O)nc3c(N)nc(NCCCC)nc32)cc1)C(=O)NCCCNCCCCNCCCN)OC(=O)CCCCCCCCCCCCCCC (stereo partly drawn) [CL475, (6R,9S)-6,23-diamino-9-(4-(2-(4-((6-amino-2-(butylamino)-8-hydroxy-9H-purin-9-yl)methyl)benzamido)acetamido)butyl)-7,10-dioxo-4-thia-8,11,15,20-tetraazatrico sane-1,2-diyl dipalmitate]	activate hTLR7	activate mTLR7	activate hTLR2	activate endogenous TLR2 and TLR7	inability to migrate through an agarose gel
202.0 nm and 209.2 nm and 179.7 nm	0.234 and 0.236 and 0.232	CCCCCCCCCCCCCCCC(=O)OCC(CSC[C@H](N)C(=O)NCCCC[C@H](NC(=O)c1ccc(Cn2c(O)nc3c(N)nc(NCCCC)nc32)cc1)C(=O)NCCCNCCCCNCCCN)OC(=O)CCCCCCCCCCCCCCC (stereo partly drawn) [CL486, (6R,13S)-6,27-diamino-13-(4-((6-amino-2-(butylamino)-8-hydroxy-9H-purin-9-yl)methyl)benzamido)-7,14-dioxo-4-thia-8,15,19,24-tetraazaheptacosane-1,2-diyl dipalmitate]	activate hTLR7	activate mTLR7	activate hTLR2	activate endogenous TLR2 and TLR7	inability to migrate through an agarose gel

More lines, now with the values behind:

Structure (SMILES)	Mean Diameter [1]	PDI [1]	ability to activate hTLR7 [2]	ability to activate mTLR7 [3]	ability to activate hTLR2 [4]	ability to activate endogenous TLR2 and TLR7 in RAW-Blue Cells [5]	ability to complex pDNA (retardation of pDNA migration in agarose gel) [6]
CCCCCCCCCCCCCCCC(=O)N[C@@H](CSCC(COC(=O)CCCCCCCCCCCCCCC)OC(=O)CCCCCCCCCCCCCCC)C(=O)N[C@@H](CO)C(=O)N[C@@H](CCCCN)C(=O)N[C@@H](CCCCNC(=O)c1ccc(Cn2c(O)nc3c(N)nc(NCCCC)nc32)cc1)C(=O)N[C@@H](CCCCN)C(=O)N[C@@H](CCCCN)C(=O)O (stereo partly drawn) [CL536, (2S,5S,8S,11S,14S,17R)-8-(4-(4-((6-amino-2-(butylamino)-8-hydroxy-9H-purin-9-yl)methyl)benzamido)butyl)-2,5,11-tris(4-aminobutyl)-14-(hydroxymethyl)-4,7,10,13,16,24-hexaoxo-17-palmitamido-21-(palmitoyloxy)-23-oxa-19-thia-3,6,9,12,15-pentaazanonatriacontan-1-oic acid]	–	–	activate hTLR7	activate mTLR7	activate hTLR2	activate endogenous TLR2 and TLR7	inability to migrate through an agarose gel
CCCCCCCCCCCCCCCC(=O)N[C@@H](CSCC(COC(=O)CCCCCCCCCCCCCCC)OC(=O)CCCCCCCCCCCCCCC)C(=O)N[C@@H](CO)C(=O)N[C@@H](CCCCNC(=O)c1ccc(Cn2c(O)nc3c(N)nc(NCCCC)nc32)cc1)C(=O)N[C@@H](CCCCN)C(=O)N[C@@H](CCCCN)C(=O)N[C@@H](CCCCN)C(=O)O (stereo partly drawn) [CL537, (2S,5S,8S,11S,14S,17R)-11-(4-(4-((6-amino-2-(butylamino)-8-hydroxy-9H-purin-9-yl)methyl)benzamido)butyl)-2,5,8-tris(4-aminobutyl)-14-(hydroxymethyl)-4,7,10,13,16,24-hexaoxo-17-palmitamido-21-(palmitoyloxy)-23-oxa-19-thia-3,6,9,12,15-pentaazanonatria contan-1-oic acid]	–	–	activate hTLR7	activate mTLR7	activate hTLR2	activate endogenous TLR2 and TLR7	inability to migrate through an agarose gel
